According to ChEMBL document CHEMBL5154841, “Optimization of NAMPT activators to achieve in vivo neuroprotective efficacy” (Eur J Med Chem, 2022):

Assays:
[1] = Cytoprotective activity against FK866- induced cell death in human U2OS cells assessed as increase in viable cells by measuring relative AUC at 10 uM incubated for […] by fluorometric analysis relative to NAT; format: functional
[2] = AUCinfinity in CD-1 mouse at 30 mg/kg, ip measured after 24 hrs by LC-MS/MS analysis; format: ADME, organism-based; parameters: dose 30 mg/kg, time 24 hrs, route ip; details: in vivo
[3] = AUClast in CD-1 mouse at 1 mg/kg, iv measured after 24 hrs by LC-MS/MS analysis; format: ADME, organism-based; parameters: dose 1 mg/kg, time 24 hrs, route iv; details: in vivo
[4] = Half life in CD-1 mouse at 1 mg/kg, iv measured after 24 hrs by LC-MS/MS analysis; format: ADME, organism-based; details: in vivo
[5] = AUCinfinity in CD-1 mouse at 30 mg/kg, po measured after 24 hrs by LC-MS/MS analysis; format: ADME, organism-based; parameters: dose 30 mg/kg, time 24 hrs, route po; details: in vivo
[6] = Cmax in CD-1 mouse at 30 mg/kg, po measured after 24 hrs by LC-MS/MS analysis; format: ADME, organism-based; parameters: dose 30 mg/kg, time 24 hrs, route po; details: in vivo
[7] = Clearance in CD-1 mouse at 1 mg/kg, iv measured after 24 hrs by LC-MS/MS analysis; format: ADME, organism-based; details: in vivo
[8] = Oral bioavailability in CD-1 mouse at 30 mg/kg measured after 24 hrs by LC-MS/MS analysis; format: ADME, organism-based; details: in vivo
[9] = Half life in CD-1 mouse at 30 mg/kg, ip measured after 24 hrs by LC-MS/MS analysis; format: ADME, organism-based; details: in vivo
[10] = Cmax in CD-1 mouse at 30 mg/kg, ip measured after 24 hrs by LC-MS/MS analysis; format: ADME, organism-based; parameters: time 24 hrs, dose 30 mg/kg, route ip; details: in vivo
[11] = AUClast in CD-1 mouse at 30 mg/kg, po measured after 24 hrs by LC-MS/MS analysis; format: ADME, organism-based; parameters: dose 30 mg/kg, time 24 hrs, route po; details: in vivo
[12] = Volume of distribution at steady state in CD-1 mouse at 1 mg/kg, iv measured after 24 hrs by LC-MS/MS analysis; format: ADME, organism-based; details: in vivo, read-out: Vdss
[13] = Half life in CD-1 mouse at 30 mg/kg, po measured after 24 hrs by LC-MS/MS analysis; format: ADME, organism-based; details: in vivo
[14] = Tmax in CD-1 mouse at 30 mg/kg, ip measured after 24 hrs by LC-MS/MS analysis; format: ADME, organism-based; details: in vivo
[15] = Tmax in CD-1 mouse at 30 mg/kg, po measured after 24 hrs by LC-MS/MS analysis; format: ADME, organism-based; details: in vivo
[16] = Bioavailability in CD-1 mouse at 30 mg/kg, ip measured after 24 hrs by LC-MS/MS analysis; format: ADME, organism-based; details: in vivo
[17] = AUClast in CD-1 mouse at 30 mg/kg, ip measured after 24 hrs by LC-MS/MS analysis; format: ADME, organism-based; parameters: dose 30 mg/kg, time 24 hrs, route ip; details: in vivo
[18] = AUCinfinity in CD-1 mouse at 1 mg/kg, iv measured after 24 hrs by LC-MS/MS analysis; format: ADME, organism-based; parameters: time 24 hrs, dose 1 mg/kg, route iv; details: in vivo
T98G = test: Cytotoxicity against human T98G cells assessed as effect on cell viability up to 10 uM measured after 72 hrs by Celltiter-glo luminescent cell viability assay; format: toxicity, cell-based
U2OS = test: Cytotoxicity against human U2OS cells assessed as effect on cell viability up to 10 uM measured after 72 hrs by Celltiter-glo luminescent cell viability assay; format: toxicity, cell-based
SH-SY5Y = test: Cytotoxicity against human SH-SY5Y cells assessed as effect on cell viability up to 10 uM measured after 72 hrs by Celltiter-glo luminescent cell viability assay; format: toxicity, cell-based
[19] = Toxicity in C57BL/6J mouse assessed as body weight loss at 1 to 3 mg/kg, iv qd administered for 2 weeks and measured every day; format: organism-based; details: in vivo, 336 h, dose 1-3 mg/kg
HepG2 = test: Cytotoxicity against human HepG2 cells assessed as effect on cell viability up to 10 uM measured after 72 hrs by Celltiter-glo luminescent cell viability assay; format: toxicity, cell-based; details: hepg2, 72 h

CC(C)(C)c1cc(O)ccc1OCC(=O)Nc1ccc(O)cc1
Activity [1]: 149%

COC(=O)c1ccc(OCC(=O)Nc2ccc(O)cc2)c(C(C)(C)C)c1
Activity [1]: 133%

CC(C)(C)c1ccc(C#N)cc1OCC(=O)Nc1ccc(O)cc1
Activity [1]: 206%

CC(C)(C)c1cc(Cl)c(F)cc1OCC(=O)Nc1ccc(O)cc1
Activity [1]: 40%

CC(C)(C)c1ccccc1OCC(=O)Nc1ccc(O)cc1
AUC(0-inf) [2]: 2520 ng·h/mL | AUC(0-t) at 24 h [3]: 212 ng·h/mL | half-life [4]: 17.4 min | AUC(0-inf) [5]: 2130 ng·h/mL | Cmax [6]: 1620 ng/mL | clearance [7]: 78.8 mL/min/kg | bioavailability [8]: 33.2% | half-life [9]: 180 min | Cmax [10]: 1520 ng/mL | AUC(0-t) at 24 h [11]: 2120 ng·h/mL | Vd [12]: 1.3 L/kg | half-life [13]: 178 min | Tmax [14]: 19.8 min | Tmax [15]: 15 min | bioavailability [16]: 39.2% | AUC(0-t) at 24 h [17]: 2510 ng·h/mL | AUC(0-inf) [18]: 214 ng·h/mL

COc1ccc(OCC(=O)Nc2ccc(O)cc2)c(C(C)(C)C)c1
Activity [1]: 138%

CC(C)(C)c1cccc(F)c1OCC(=O)Nc1ccc(O)cc1
Activity [1]: 235%

O=C(COc1ccccc1)Nc1ccc(O)cc1
Activity [1]: 10%

CC(C)(C)c1cccc(C#N)c1OCC(=O)Nc1ccc(O)cc1
AUC(0-inf) [2]: 1340 ng·h/mL | AUC(0-t) at 24 h [3]: 183 ng·h/mL | half-life [4]: 10.8 min | AUC(0-inf) [5]: 395 ng·h/mL | Activity (T98G): Non-Toxic | Cmax [6]: 188 ng/mL | Activity (U2OS): Non-Toxic | Activity (SH-SY5Y): Non-Toxic | clearance [7]: 90.4 mL/min/kg | bioavailability [8]: 7.05% | Activity [19]: Non-Toxic | half-life [9]: 63 min | Cmax [10]: 1560 ng/mL | AUC(0-t) at 24 h [11]: 388 ng·h/mL | Vd [12]: 1.13 L/kg | Activity (HepG2): Non-Toxic | half-life [13]: 80.4 min | Tmax [14]: 15 min | Tmax [15]: 15 min | bioavailability [16]: 24.2% | AUC(0-t) at 24 h [17]: 1330 ng·h/mL | AUC(0-inf) [18]: 185 ng·h/mL

CC(C)(C)c1ccc(F)cc1OCC(=O)Nc1ccc(O)cc1
Activity [1]: 171%

CC(C)(C)c1cc(Cl)ccc1OCC(=O)Nc1ccc(O)cc1
Activity [1]: 32%

CC(C)(C)c1cc(C#N)ccc1OCC(=O)Nc1ccc(O)cc1
Activity [1]: 126%

CC(C)(C)c1cc(Br)ccc1OCC(=O)Nc1ccc(O)cc1
Activity [1]: 40%
